Reference: publication PMC12169680, “Design and Mechanistic Analysis of a Potent Bivalent Inhibitor of Transthyretin Amyloid Fibrillogenesis” (Journal of Medicinal Chemistry, 2025)

Assays:
V122I TTR [1] = target: T1, V122I TTR (Homo sapiens, UniProt P02766, V142I); assay: Inhibition of mechano-enzymatic fibrillogenesis (ThT); type: biochemical
T1 construct: 1-127; His6 (N); TEV cleavage site (N); made in house; host or cells: E. coli BL21 (DE3)
Method: To test their potency as inhibitors of TTR fibril formation, the 15 ligands were evaluated for their ability to inhibit the mechano-enzymatic mechanism of fibrillogenesis of V122I TTR, which is one of the most common amyloidogenic variants, , causing a disease with severity intermediate between the wild-type and other rare, more aggressive types of amyloidosis. […] Biochemical activity of ligands together with their physicochemical properties (i.e., cLogD, TPSA) were taken into consideration and B26 was finally selected as the most promising lead for further studies (Figure A). […] Prototype mds84 was also included for comparison. […] Although higher molar ratios of the monovalent ligands did inhibit fibrillogenesis, this cannot be replicated in vivo because the negative cooperativity of TTR cannot be overcome at feasible drug dosage. ,
Recombinant V122I TTR at 0.5 mg/mL (9 μM) in PBS, pH 7.4 was preincubated (37 °C for 30 min) with an equimolar concentration of ligand (or DMSO alone) before adding trypsin (5 ng/μL). Protein fibrillogenesis was carried out in glass vials stirred at 1400 rpm (IKA magnetic stirrer), 37 °C and spectrophotometric turbidity at 400 nm was used to monitor fibril formation over time until it reached a plateau at 96 h.
Analysis of amyloid material harvested from each sample at the end of the fibrillogenesis was carried out using Thioflavin T (ThT) emission fluorescence and Congo red staining. For these analyses, samples were centrifuged 20 min at 11,600g and pellets were thoroughly rinsed with PBS to remove nonbound ligand, resuspended with 100 μL PBS, pH 7.4, containing 10 μM Thioflavin T (ThT) in Costar 96-well black-wall plates. Bottom fluorescence values (excitation 440 nm, emission 480 nm) were recorded using a BMG LABTECH FLUostar Omega plate reader. Each value was normalized to the ThT signal of the TTR sample without ligand.

[2] = target: T2, recombinant wild-type TTR (Homo sapiens, UniProt P02766); assay: Stopped flow kinetics of ligand binding by fluorescence emission; conditions: for rate constant k of TTR intrinsic fluorescence quenching / very early change in TTR fluorescence during dead time: 1 μM TTR; for rate constant k of TTR intrinsic fluorescence quenching: 1 μM ligand, 37 °C, PBS pH 7.4, first second; for very early change in TTR fluorescence during dead time: dead time <5 ms, equimolar ligand
T2 construct: Native TTR is a noncovalent homotetramer of β-sheet-rich 127-residue protomers; His6 (N); TEV cleavage site (N); made in house; host or cells: E. coli BL21 (DE3)
Method: Interaction of ligands in the TTR thyroxine binding pockets induces quenching of intrinsic fluorescence emission.
Kinetics of binding within the first second of reaction was evaluated with an SFM 3000 stopped flow device coupled to a MOS500 spectrometer with a fluorescence detection system (Bio Logic, Claix, France) and a cell path length of 1.5 mm (dead-time <5 ms). Total fluorescence emission over 325 nm, using a cut off filter, was monitored after excitation at 280 nm at 37 °C and 1 μM recombinant wild-type TTR in the presence of 1 μM of ligand in PBS pH 7.4 at a final concentration of 0.9% DMSO. Kinetic data were acquired as the average of at least 3 experimental mixings and fitted using the following equation y(t)=q+Aexp(−kt) where y(t) is the observed fluorescence q the offset of the baseline. A and k are, respectively, amplitude and rate constant of the observed fluorescence change.

[3] = target: T3, wild-type TTR in normal human plasma (Homo sapiens, UniProt P02766); assay: Displacement of 125I-T4 from TTR in normal human plasma; type: binding
T3 construct: TTR in whole plasma, from individuals homozygous for wild-type TTR; from tissue; host or cells: whole human plasma from individuals homozygous for wild-type TTR

V122I TTR [4] = target: T1, V122I TTR; assay: Electrophoretic analysis of V122I TTR proteolysis before and after mechano-enzymatic aggregation; type: biochemical; conditions: SDS-PAGE, trypsin, 96 h aggregation
Method: Figure S2. Effect of B26 on proteolysis of V122I TTR. Homogenous SDS-12% PAGE under reducing conditions of 9 µM V122I TTR before (a) and after 96 h aggregation in the presence of 0 (b), 4.5 µM (c), 9 (d), 18 (e) and 36 µM (f) of B26 respectively in PBS pH 7.4 at 37°C. Aggregation was carried out under fluid agitation and addition of trypsin at an enzyme: substrate ratio of 1:200. LMW marker […]

TTR = target: T4, TTR (Homo sapiens, UniProt P02766); assay: NMR saturation transfer difference (STD) experiments to estimate k off; type: binding; conditions: no STD signal observed by increasing the saturation time
T4 construct: Native TTR is a noncovalent homotetramer of β-sheet-rich 127-residue protomers; His6 (N); TEV cleavage site (N); made in house; host or cells: E. coli BL21 (DE3)
From the text: However, the prototype mds84 was unsuitable for drug development due to its large and highly hydrophobic structure. The bivalent compound B26 represents the evolution of such TTR ligands. Compared to the palindromic prototype, the molecule has reduced size and reduced lipophilicity as a consequence of the removal of one of the aryl rings from headgroup B; introduction of an oxygen in the six-atom linker; replacement of the benzoyl group in headgroup A with 4-carboxy pyridine. Despite these structural changes, the ligand retains the same pseudoirreversible binding of mds84. […] Therefore, the B26 ligand overcomes the pharmaceutical limitations of negative cooperativity and, at the same time, retains the biomolecular property of very strong inhibition of TTR fibrillogenesis by simultaneously occupying the two ligand binding sites. Each of them is able to accommodate two aryl rings, and the one that penetrates deeper into the cavity is anchored to the protein by two halogen substituents. We have designed a bivalent molecule in which one-half has the properties of a classical analogue of the thyroid hormone, and the second half, connected through a chemical linker, is represented by only one aryl ring with halogen substituents.

Rat pharmacokinetics = type: in vivo; conditions: data not shown
[5] = residual V122I TTR fibrillar aggregation with equimolar ligand, ThT emission normalized to protein without ligand, mean ± SD
[6] = supplementary CSV, residual V122I TTR aggregation, equimolar ligand

| inhibition of V122I TTR amyloid formation at equimolar ligand/protein, in words (V122I TTR [1]; 9 μM V122I TTR, equimolar concentration, bivalent vs monovalent ligands) | IC50 ([3]; capacity to displace 125I-T4 from TTR in human plasma) [µM] | rat pharmacokinetics compared with mds84 (Rat pharmacokinetics) | Structure (SMILES) | rate constant k of TTR intrinsic fluorescence quenching [2] [s^–1] | very early change in TTR fluorescence during dead time [2] | binding to TTR in plasma, in words ([3]; normal human plasma) | antifibrillogenic activity, in words (V122I TTR [1]; V122I TTR, equimolar ligand) | Agg (%) (V122I TTR [1]; [5]) | Agg (%) (V122I TTR [1]; [6]) | quenching reaction / penetrance faster than mds84 ([2]; ratio of rate constants) [fold] | quenching reaction slower than tafamidis ([2]; ratio of rate constants) | reduction of TTR intrinsic fluorescence ([2]; within the first second, equimolar protein and ligand) [%] | effect on proteolysis of V122I TTR (V122I TTR [4]) | k off (TTR) | IC50 ([3]; ligand concentration reducing binding of 125I-thyroxine by wild-type TTR by 50% in normal human plasma, mean ± SD) [µM] |
| --- | --- | --- | --- | --- | --- | --- | --- | --- | --- | --- | --- | --- | --- | --- | --- |
| significantly lower inhibitory effect | – | – | O=C(O)c1ccc2nc(-c3cc(Cl)cc(Cl)c3)oc2c1 [tafamidis, reference compound] | 49 ± 0.0016 | approximately 8% | – | – | – | – | – | – | – | – | – | – |
| – | – | – | O=C(O)CCc1cc(Cl)c(OCCCOCCOc2c(Cl)cc(Nc3cnccc3C(=O)O)cc2Cl)c(Cl)c1 [B26, 3-[4-[2-[3-[4-(2-Carboxyethyl)-2,6-dichloro-phenoxy]-propoxy]-ethoxy]-3,5-dichloro-anilino]-Pyridine-4-Carboxylic Acid] | 22 ± 0.55 | approximately 8% | preservation of the properties | excellent antifibrillogenic activity | 4.2 ± 1.9 | 4.2±1.9 | 5 | at least 2 fold | ~30 | inhibited proteolysis | very slow | – |
| – | 2 ± 0.2 | much improved | O=C(O)CCc1cc(Cl)c(OCCCCCCCOc2c(Cl)cc(Nc3ccccc3C(=O)O)cc2Cl)c(Cl)c1 [compound 1] | – | – | – | – | – | – | – | – | – | – | – | – |
| – | – | – | O=C(O)c1ccccc1Nc1cc(Cl)c(OCCCCCCCOc2c(Cl)cc(Nc3ccccc3C(=O)O)cc2Cl)c(Cl)c1 [mds84, reference compound] | 4.4 ± 0.44 | 3% | – | – | 2.4 ± 0.30 | 2.4±0.30 | – | – | – | – | – | 19 ± 5.8 |
